The numbers were not newly measured in US6589744B2, “Method and kit for identification for nucleic acid modification enzymes and inhibitors thereof” (Syngenta Participations AG, priority 2001, dated 2003), which cites them from elsewhere.

Usually IC50 stands for the midpoint of a concentration-inhibition curve.

Each structure is given as a SMILES string.

The data set has as its target T1, T4 DNA ligase (Enterobacteria phage T4, UniProt P00970).
T1 sequence (P00970 1-487): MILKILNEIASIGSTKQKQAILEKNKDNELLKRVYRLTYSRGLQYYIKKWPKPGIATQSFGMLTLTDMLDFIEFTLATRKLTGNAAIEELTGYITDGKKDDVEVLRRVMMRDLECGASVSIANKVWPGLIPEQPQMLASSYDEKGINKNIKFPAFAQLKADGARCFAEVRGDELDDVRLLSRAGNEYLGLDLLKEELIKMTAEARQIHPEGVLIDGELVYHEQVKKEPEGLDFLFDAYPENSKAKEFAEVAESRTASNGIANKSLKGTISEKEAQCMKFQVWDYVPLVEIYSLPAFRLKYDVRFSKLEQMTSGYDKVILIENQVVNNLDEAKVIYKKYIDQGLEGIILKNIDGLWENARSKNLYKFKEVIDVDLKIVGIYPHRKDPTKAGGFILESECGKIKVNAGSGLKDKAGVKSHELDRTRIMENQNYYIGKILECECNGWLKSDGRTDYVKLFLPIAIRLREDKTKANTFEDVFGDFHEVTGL
Conditions: previously determined, radiolabeled substrates and PAGE gel shift assays (Montecucco et al.). (In general: Mobility shift assays separate free from complexed probe on a gel.)

As to `COc1cccc2c1C(=O)c1c(O)c3c(c(O)c1C2=O)C[C@@](O)(C(=O)CO)C[C@@H]3O[C@H]1C[C@H](N)[C@@H](O)[C@H](C)O1` [Epirubicin, epirubicin], the IC50 was 2700 nM.
